Measured values taken from patent US10830746B2, “Quantitation of Tamoxifen and metabolites thereof by mass spectrometry” (QUEST DIAGNOSTICS INVESTMENTS INCORPORATED, priority 2014, dated 2020).

assay: Quantitation of tamoxifen and its metabolites in patient serum by LC-MS/MS; conditions: expected values in serum
Protocol: In the following procedure, tamoxifen and its metabolites are extracted from serum. The serum is added to a filter plate, and then mixed with acetonitrile/IS, which then forms a precipitate. The mixture is then placed on a positive pressure manifold, and the organic fraction is passed through to a collection plate. The plate is lidded, and then placed on the Cohesive system for injection onto MS/MS. The MS is in APCI-positive mode. The quantitation is based upon unique parent-product transitions. Those analytes with similar transitions were separated chromatographically.
A 12-point calibration is used for each analyte. Initially, only one standard is made (Std-12), with a series of dilutions performed to generate the remaining standards. The standard (#12) is to be removed from the −70° C. freezer and thawed. While thawing, label twelve 12×75 mm tubes.
Add 3.0 mL of std-12 to tube 12. From this standard, you will follow the table below to create the standard curve. A standard curve is to be generated with each assay. Place the initial standard back in the −60 to −90° C. freezer.
A Thermo LC/MS/MS system containing the following modules was used for this assay:
The extraction is a protein precipitation, followed by filtration. Analysis and quantitation is then performed by LC/MS/MS.
Norendoxifen is extracted from serum using protein precipitation, followed by filtration. Analysis and quantitation is then performed by LC/MS/MS.

Question: Which “Reference Ranges” value does the source give for Tamoxifen here?
Answer: 12.54 to 233.07 ng/mL

same assay, conditions: human, in vivo

Question: Which “Reference Ranges” value does the source give for 4-Hydroxy Tamoxifen here?
Answer: 0.24 to 5.05 ng/mL

Question: Which “Reference Ranges” value does the source give for `CC/C(=C(\c1ccccc1)c1ccc(OCCN(C)C)cc1)c1ccc(O)cc1` [4′-Hydroxy Tamoxifen] here?
Answer: 0.4 to 6.33 ng/mL

Question: Which “Reference Ranges” value does the source give for `CC/C(=C(\c1ccccc1)c1ccc(OCCNC)cc1)c1ccccc1` [N-Desmethyl Tamoxifen] here?
Answer: 2.59 to 373.96 ng/mL

Question: With `CC/C(=C(\c1ccc(O)cc1)c1ccc(OCCNC)cc1)c1ccccc1` [N-Desmethyl-4-Hydroxy Tamoxifen] as the molecule, how does the “Reference Ranges” value read?
Answer: 0.93 to 43.19 ng/mL

Question: For `CCC(=C(c1ccccc1)c1ccc(OCCNC)cc1)c1ccc(O)cc1` [N-Desmethyl-4′-Hydroxy Tamoxifen], which “Reference Ranges” value is on record?
Answer: 1.17 to 19.95 ng/mL
